Reference: patent US10988440B2, “FTO inhibitors” (National Institute of Biological Sciences, Beijing, priority 2015, dated 2021)

Biological target: FTO (Homo sapiens, UniProt Q9C0B1)
Assay: demethylation reaction catalyzed by FTO (enzymatic inhibition, HPLC-MS/MS of N6-mA and A)
Format: biochemical
Details: exemplary IC50 data of representative compounds; read-out: Enzymatic inhibition (IC50)

Chain of FTO (Q9C0B1 whole entry): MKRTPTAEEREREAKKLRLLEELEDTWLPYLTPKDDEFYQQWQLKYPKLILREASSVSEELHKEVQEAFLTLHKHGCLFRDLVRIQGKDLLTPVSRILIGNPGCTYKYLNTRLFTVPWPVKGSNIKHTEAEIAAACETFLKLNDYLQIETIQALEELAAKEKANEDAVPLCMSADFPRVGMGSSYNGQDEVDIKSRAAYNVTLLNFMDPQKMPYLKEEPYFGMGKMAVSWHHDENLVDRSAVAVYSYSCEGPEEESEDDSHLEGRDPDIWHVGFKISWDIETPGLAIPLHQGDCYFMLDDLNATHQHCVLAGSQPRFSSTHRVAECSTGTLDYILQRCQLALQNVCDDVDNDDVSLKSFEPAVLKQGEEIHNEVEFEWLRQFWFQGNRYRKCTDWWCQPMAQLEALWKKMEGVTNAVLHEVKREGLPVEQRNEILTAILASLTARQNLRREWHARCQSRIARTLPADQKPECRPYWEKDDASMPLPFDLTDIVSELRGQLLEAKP

Row | IC50 | Structure (SMILES)
1 | < 1 µM | N#C/C(C(=O)NCc1ccncn1)=C(/O)c1cc(O)c(O)c([N+](=O)[O-])c1 [Compound 673, (Z)-2-cyano-3-(3,4-dihydroxy-5-nitrophenyl)-3-hydroxy-N-(pyrimidin-4-ylmethyl)acrylamide]
2 | > 1 µM | CCNC(=O)/C(C#N)=C/c1cc(O)c(O)c([N+](=O)[O-])c1 [Compound 684]
3 | ~1 µM | N#C/C(=C\c1cc(O)c(O)c([N+](=O)[O-])c1)C(=O)Nc1cccc(Cl)c1 [Compound 365]
4 | > 1 µM | N#CC(=Cc1cc(O)c(O)c([N+](=O)[O-])c1)c1ccc[n+]([O-])c1 (stereo in doubt) [Compound 518, (E)-3-(1-cyano-2-(3,4-dihydroxy-5-nitrophenyl)vinyl)pyridine 1-oxide]
5 | ~1 µM | N#C/C(C(=O)c1cscn1)=C(/O)c1cc(O)c(O)c([N+](=O)[O-])c1 [Compound 711, (Z)-3-(3,4-dihydroxy-5-nitrophenyl)-3-hydroxy-2-(thiazole-4-carbonyl)acrylonitrile]
6 | ~1 µM | N#C/C(=C\c1cc(O)c(O)c([N+](=O)[O-])c1)C(=O)NO [Compound 664]
7 | > 1 µM | N#C/C(C(=O)N1CCC1)=C(/N)c1cc(O)c(O)c([N+](=O)[O-])c1 [Compound 701N, (Z)-3-amino-2-(azetidine-1-carbonyl)-3-(3,4-dihydroxy-5-nitrophenyl)acrylonitrile]
8 | ~1 µM | N#C/C(=C\c1cc(O)c(O)c([N+](=O)[O-])c1)c1ccncc1 [Compound 389]
9 | > 1 µM | N#C/C(=C\c1cc(O)c(O)c([N+](=O)[O-])c1)C(=O)c1nc2ccccc2[nH]1 [Compound 394, 2-(1H-benzo[d]imidazole-2-carbonyl)-3-(3,4-dihydroxy-5-nitrophenyl)acrylo-nitrile]
10 | ~1 µM | N#C/C(=C\c1cc(O)c(O)c([N+](=O)[O-])c1)C(=O)N[C@@H](CO)C(=O)O [Compound 693, (S,E)-2-(2-cyano-3-(3,4-dihydroxy-5-nitrophenyl)acrylamido)-3-hydroxypropanoic Acid]
11 | < 1 µM | Cc1ccc(/C(C#N)=C/c2cc(O)c(O)c([N+](=O)[O-])c2)nc1 [Compound 502]
12 | > 1 µM | N#C/C(=C\c1cc(O)c(O)c([N+](=O)[O-])c1)C(=O)c1cc(O)no1 [Compound 675, (E)-3-(3,4-dihydroxy-5-nitrophenyl)-2-(3-hydroxyisoxazole-5-carbonyl)acrylonitrile]
13 | > 1 µM | N#C/C(=C\c1cc(O)c(O)c([N+](=O)[O-])c1)C(=O)Nc1nc2ccccc2s1 [Compound 333]
14 | < 1 µM | N#C/C(C(=O)Nc1cnccn1)=C(/O)c1cc(O)c(O)c([N+](=O)[O-])c1 [Compound 722]
15 | ~1 µM | N#C/C(=C\c1cc(O)c(O)c([N+](=O)[O-])c1)c1cncnc1 [Compound 522]
16 | ~1 µM | CC(NC(=O)/C(C#N)=C/c1cc(O)c(O)c([N+](=O)[O-])c1)C(=O)O (stereo not drawn) [Compound 712]
17 | < 1 µM | N#C/C(C(=O)N1CCCOC1)=C(/O)c1cc(O)c(O)c([N+](=O)[O-])c1 [Compound 715]
18 | > 1 µM | N#C/C(C(=O)NC1CC1)=C(/N)c1cc(O)c(O)c([N+](=O)[O-])c1 [Compound 692N, (Z)-3-amino-2-cyano-N-cyclopropyl-3-(3,4-dihydroxy-5-nitrophenyl)acrylamide]
19 | ~1 µM | N#C/C(=C\c1cc(O)c(O)c([N+](=O)[O-])c1)C(=O)N1CCC[C@H]1C(=O)O [Compound 702, (S,E)-1-(2-cyano-3-(3,4-dihydroxy-5-nitrophenyl)acryloyl)pyrrolidine-2-carboxylic Acid]
20 | ~1 µM | CCNC(=O)/C(C#N)=C(\N)c1cc(O)c(O)c([N+](=O)[O-])c1 [Compound 691N, (Z)-3-amino-2-cyano-3-(3,4-dihydroxy-5-nitrophenyl)-N-ethylacrylamide]
21 | < 1 µM | N#C/C(=C\c1cc(O)c(O)c([N+](=O)[O-])c1)c1nc(C(=O)O)cs1 [Compound 666, (E)-2-(1-cyano-2-(3,4-dihydroxy-5-nitrophenyl)vinyl)thiazole-4-carboxylic Acid]
